Data reported in PMC12752606, “METTL10‐Mediated PIAS3 Methylation Links Purine Metabolism to Gastric Cancer Progression” (Advanced Science, 2025).

Columns and labels:
[1] = system: MKN45 and AGS cells; test: Colony formation assay; format: cell-based; details: 10 and 20 µM
Protocol: Cells (1000 cells/well) were seeded in six‐well plates and provided with fresh culture medium every 3 days. After 14 days of incubation, the medium was removed, and the cells were gently washed three times with room‐temperature PBS. The cells were then fixed with 1 mL of 4% paraformaldehyde per well for 15 min. Next, 1 mL of 0.1% crystal violet solution was added to each well and incubated for 10 min to stain the cells. The crystal violet solution was drained, and the wells were rinsed with running water to remove excess stain, followed by air drying and photography.

[2] = system: PIAS3-K442 methylation in MKN45 and AGS cells; test: Immunoblotting of PIAS3-K442 methylation in GC cell lines; format: cell-based; details: 20 µM or higher, 24-hour treatment
Protocol: (§1) Protein extraction from tissues or cells was performed by lysis buffer (20 mM Tris‐HCl (pH 7.5), 150 mM NaCl, 1 mM EDTA, 1 mM EGTA, 2.5 mM sodium pyrophosphate, 1 mM β‐glycerolphosphate, 1% Triton X‐100) supplemented with 1% phenylmethylsulfonyl fluoride (PMSF; Solarbio, P0100) and protease inhibitor cocktail (Apexbio, K1007) and lysed at 4 °C for 60 min, followed by centrifugation at 12000 g for 15 min at 4 °C. For Immunoblotting, the protein concentration was determined using the Pierce BCA Protein Assay Kit (Thermo Fisher Scientific, A55864). The protein samples were denatured by boiling in SDS‐PAGE loading buffer. For immunoprecipitation, antibodies were incubated with Dynabeads Protein G (Thermo, 10004D) at 4 °C for 4 h. The supernatant was then incubated with magnetic beads conjugated with antibodies or anti‐FLAG‐M2 magnetic beads (Sigma–Aldrich, M8823) at 4 °C overnight. Following incubation, the magnetic beads were washed three times with lysis buffer and then boiled in SDS‐PAGE loading buffer. The proteins were separated by sodium dodecyl sulfate polyacrylamide gel electrophoresis (SDS‐PAGE) with One‐Step PAGE Gel Fast Preparation Kit (Vazyme), and then transferred to the PVDF Membrane (Bio‐Rad). After blocking with a protein‐free rapid blocking buffer (Epizyme, PS108P) for 15 min, the membranes were incubated with primary antibodies at 4 °C overnight. […]

[3] = system: purine nucleotides in MKN45 and AGS cells; test: Purine metabolite levels by LC-MS; format: cell-based; details: 20 µM
Protocol: Cells were collected and transferred to centrifuge tubes, followed by three washes with cold PBS. The samples were then resuspended in an extraction solution (methanol: acetonitrile: water = 2:2:1, v/v/v, 1 mL) and vortexed for 30 s. The suspension underwent ice bath sonication for 10 min and frozen and thawed in liquid nitrogen for repeated three times. To fully precipitate proteins, the samples were incubated at −20 °C for 1 h. Subsequently, the cell lysates were centrifuged at 13000 rpm for 15 min at 4 °C. The supernatant was then lyophilized using a low‐temperature vacuum centrifugal concentrator and analyzed by LC‐MS using the AB SCIEX QTRAP 6500^+ system.

[4] = system: Flag-METTL10 protein in HEK293T cells; test: Cycloheximide chase assay of Flag-METTL10 stability; format: cell-based; details: 20 µM
[5] = system: ICR mice; test: Acute toxicity at 125 mg/kg, 7-day observation and histopathology; format: in vivo
Protocol: (§2) For the acute toxic study, 8‐week‐old ICR mice (n = 6 per group) were administered a single intraperitoneal injection of LZQ‐02‐023‐01 at escalating doses. A vehicle‐treated group served as control. Survival was monitored continuously for 24 h postadministration. Additionally, another cohort of ICR mice (n = 5 per group) received a single intraperitoneal dose of LZQ‐02‐023‐01 at 125 mg/kg and were subsequently monitored daily for 7 days for clinical signs of toxicity, behavioral changes, body weight fluctuations, and mortality. At the conclusion of the observation period, animals were euthanized and subjected to a comprehensive gross necropsy. Major organs, including the liver, kidney, heart, lung, and spleen, were harvested for histopathological examination. For the chronic toxic study, 8‐week‐old ICR mice (n = 5 per group) received daily intraperitoneal injections of LZQ‐02‐023‐01 at a therapeutic dose of 40 mg/kg for 14 consecutive days. A vehicle‐treated group was included as a control. Throughout the treatment period, animals were monitored daily for clinical signs of toxicity and weighed every 2 days. At study termination, blood samples were collected for hematological and biochemical analyses. […]

[6] = system: T1, METTL10; test: MTase-Glo screening assay, METTL10 with Histone H4 peptide substrate; format: biochemical; details: 10 µM
T1 construct: purchased ICE Bioscience Inc
Protocol: To identify METTL10 inhibitors, an in‐silico screening was first conducted on an in‐house compound library comprising approximately 6000 structurally diverse molecules. Molecular docking simulations with the METTL10 protein identified 111 candidate compounds for further analysis. The methyltransferase activity of these candidates was assessed using the MTase‐Glo Methyltransferase Assay (Promega, V7601) according to the manufacturer's protocol. Briefly, the candidate compounds were preincubated with His‐METTL10 protein (1 µg) at 37 °C for 1 h in a methylation reaction buffer (50 mM Tris‐HCl (pH 8.0), 20 mM KCl, 5 mM DTT, 4 mM EDTA, and 20 µM SAM), followed by the addition of either the Histone H4 or PIAS3 peptide substrate for an additional 1 h. The reaction was then subjected to MTase‐Glo reagent buffer for 30 min, followed by MTase‐Glo detection buffer for another 30 min. Luminescence was measured using a luminometer (Promega), and IC50 values were calculated using GraphPad Prism 8 software.

[7] = system: MITF ubiquitination in MKN45 and AGS cells; test: Endogenous MITF ubiquitination and degradation in GC cells (IP and immunoblotting); format: cell-based; details: 20 µM, MG132 5 µM pretreatment
Protocol: as §1, with “buffer.” for “buffer. The proteins were separated by sodium dodecyl sulfate polyacrylamide gel electrophoresis (SDS‐PAGE) with One‐Step PAGE Gel Fast Preparation Kit (Vazyme), and then transferred to the PVDF Membrane (Bio‐Rad). After blocking with a protein‐free rapid blocking buffer (Epizyme, PS108P) for 15 min, the membranes were incubated with primary antibodies at 4 °C overnight.”
Plasmids were transfected into HEK293T cells for 24 h or into gastric cells for 36 h. […] After lysing the cells with lysis buffer, the samples were subjected to immunoprecipitation and analyzed by immunoblotting.

[8] = system: METTL10 protein levels in MKN45 and AGS cells; test: Immunoblotting of METTL10 protein levels in treated GC cells; format: cell-based; details: 20 µM, not rescued by MG132
Protocol: as §1

[9] = Acute toxicity, single intraperitoneal injection at escalating doses (LD50); details: ICR, mouse, in vivo, ip, ICR mice, 24 h survival
Protocol: as §2

Cc1ccc(Nc2ncc3c(n2)N(C)C(=O)N(c2cccc(N)c2)C3)cn1 [LZQ-02-023-01, Three‐(3‐aminophenyl)‐1‐methyl‐7‐((6‐methylpyridin‐3‐yl)amino)‐3,4‐dihydropyrimido [4,5‐d] pyrimidin‐2 (1H)‐one]
GC cell proliferation (colony formation) [1]: significantly inhibited
Methylation of PIAS3-K442 in GC cell lines [2]: decreased
Levels of purine nucleotides [3]: decreased
Half-life of METTL10 protein [4]: remained unchanged
Signs of overt toxicity ([5]; 7 days): did not observe any signs of overt toxicity
Histopathological analysis of major organs ([5]; end of 7-day period): no apparent tissue damage
Inhibition of METTL10 activity toward histone H4 [6]: significantly inhibited
PIAS3-mediated ubiquitination and degradation of MITF, GC cells [7]: significantly promoted
METTL10 protein levels [8]: significant reduction
LD50 at 24 h [9]: 213 mg/kg
